In ChEMBL document CHEMBL4507265 (2021):

Experiments:
[1] = molecular target: Calcium/calmodulin-dependent protein kinase kinase 2 (Homo sapiens) (UniProt Q96RR4); conditions: Compound concentration 1000.0 nM
[2] = molecular target: Serine/threonine-protein kinase pim-2 (Homo sapiens) (UniProt Q9P1W9); conditions: Compound concentration 1000.0 nM
[3] = molecular target: Leucine-rich repeat serine/threonine-protein kinase 2 (Homo sapiens) (UniProt Q5S007); conditions: Compound concentration 1000.0 nM
[4] = molecular target: Serine/threonine-protein kinase 25 (Homo sapiens) (UniProt O00506); conditions: Compound concentration 1000.0 nM
[5] = molecular target: Mitogen-activated protein kinase kinase kinase 7 (Homo sapiens) (UniProt O43318); conditions: Compound concentration 1000.0 nM
[6] = molecular target: Aurora kinase C (Homo sapiens) (UniProt Q9UQB9); conditions: Compound concentration 1000.0 nM
[7] = molecular target: Calcium/calmodulin-dependent protein kinase type 1D (Homo sapiens) (UniProt Q8IU85); conditions: Compound concentration 1000.0 nM
[8] = molecular target: T1, D(4) dopamine receptor (Homo sapiens) (UniProt P21917); conditions: Compound concentration 10.0 uM
T1 sequence (whole entry): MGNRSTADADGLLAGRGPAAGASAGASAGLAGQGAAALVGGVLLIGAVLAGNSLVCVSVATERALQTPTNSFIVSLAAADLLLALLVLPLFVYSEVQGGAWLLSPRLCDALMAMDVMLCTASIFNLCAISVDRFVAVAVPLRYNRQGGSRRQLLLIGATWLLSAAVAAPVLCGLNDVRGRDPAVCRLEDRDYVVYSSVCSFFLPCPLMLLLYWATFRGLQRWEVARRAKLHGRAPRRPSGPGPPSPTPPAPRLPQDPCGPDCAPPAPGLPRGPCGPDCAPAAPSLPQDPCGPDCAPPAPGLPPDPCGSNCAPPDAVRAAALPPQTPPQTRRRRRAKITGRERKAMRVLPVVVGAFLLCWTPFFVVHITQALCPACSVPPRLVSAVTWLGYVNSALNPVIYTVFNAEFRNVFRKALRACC

[9] = test system: Epidermal growth factor receptor (Homo sapiens), P00533 [G719S]; conditions: Compound concentration 1000.0 nM
[10] = molecular target: NUAK family SNF1-like kinase 2 (Homo sapiens) (UniProt Q9H093); conditions: Compound concentration 1000.0 nM
[11] = molecular target: Transient receptor potential cation channel subfamily M member 6 (Homo sapiens) (UniProt Q9BX84); conditions: Compound concentration 1000.0 nM
[12] = molecular target: Mitogen-activated protein kinase kinase kinase kinase 5 (Homo sapiens) (UniProt Q9Y4K4); conditions: Compound concentration 1000.0 nM
[13] = molecular target: 5'-AMP-activated protein kinase catalytic subunit alpha-2 (Homo sapiens) (UniProt P54646); conditions: Compound concentration 1000.0 nM
[14] = molecular target: Beta-3 adrenergic receptor (Homo sapiens) (UniProt P13945); conditions: Compound concentration 10.0 uM
[15] = molecular target: Ribosomal protein S6 kinase alpha-3 (Homo sapiens) (UniProt P51812); conditions: Compound concentration 1000.0 nM
[16] = molecular target: Mitogen-activated protein kinase 15 (Homo sapiens) (UniProt Q8TD08); conditions: Compound concentration 1000.0 nM
[17] = test system: Fibroblast growth factor receptor 3 (Homo sapiens), P22607 [G697C]; conditions: Compound concentration 1000.0 nM
[18] = molecular target: Cytoplasmic tyrosine-protein kinase BMX (Homo sapiens) (UniProt P51813); conditions: Compound concentration 1000.0 nM
[19] = molecular target: Bone morphogenetic protein receptor type-2 (Homo sapiens) (UniProt Q13873); conditions: Compound concentration 1000.0 nM
[20] = molecular target: Receptor-interacting serine/threonine-protein kinase 1 (Homo sapiens) (UniProt Q13546); conditions: Compound concentration 1000.0 nM
[21] = molecular target: Homeodomain-interacting protein kinase 3 (Homo sapiens) (UniProt Q9H422); conditions: Compound concentration 1000.0 nM
[22] = molecular target: Serine/threonine-protein kinase 32A (Homo sapiens) (UniProt Q8WU08); conditions: Compound concentration 1000.0 nM
[23] = molecular target: Activin receptor type-2B (Homo sapiens) (UniProt Q13705); conditions: Compound concentration 1000.0 nM
[24] = molecular target: Serine/threonine-protein kinase DCLK2 (Homo sapiens) (UniProt Q8N568); conditions: Compound concentration 1000.0 nM
[25] = molecular target: Cyclin-dependent kinase 2 (Homo sapiens) (UniProt P24941); conditions: Compound concentration 1000.0 nM
[26] = molecular target: Serine/threonine-protein kinase ULK2 (Homo sapiens) (UniProt Q8IYT8); conditions: Compound concentration 1000.0 nM
[27] = molecular target: Protein-tyrosine kinase 6 (Homo sapiens) (UniProt Q13882); conditions: Compound concentration 1000.0 nM
[28] = molecular target: 3-phosphoinositide-dependent protein kinase 1 (Homo sapiens) (UniProt O15530); conditions: Compound concentration 1000.0 nM
[29] = molecular target: Alpha-2B adrenergic receptor (Homo sapiens) (UniProt P18089); conditions: Compound concentration 10.0 uM
[30] = molecular target: Ribosomal protein S6 kinase alpha-2 (Homo sapiens) (UniProt Q15349); conditions: Compound concentration 1000.0 nM
[31] = molecular target: Cyclin-dependent kinase 4 (Homo sapiens) (UniProt P11802); conditions: Compound concentration 1000.0 nM
[32] = molecular target: Tyrosine-protein kinase receptor UFO (Homo sapiens) (UniProt P30530); conditions: Compound concentration 1000.0 nM
[33] = molecular target: Tyrosine-protein kinase Tec (Homo sapiens) (UniProt P42680); conditions: Compound concentration 1000.0 nM
[34] = molecular target: 5-hydroxytryptamine receptor 5A (Homo sapiens) (UniProt P47898); conditions: Compound concentration 10.0 uM
[35] = molecular target: 5-hydroxytryptamine receptor 3A (Homo sapiens) (UniProt P46098); conditions: Compound concentration 10.0 uM
[36] = molecular target: Mu-type opioid receptor (Homo sapiens) (UniProt P35372); conditions: Compound concentration 10.0 uM
[37] = test system: Hepatocyte growth factor receptor (Homo sapiens), P08581 [M1250T]; conditions: Compound concentration 1000.0 nM
[38] = molecular target: Dual specificity mitogen-activated protein kinase kinase 4 (Homo sapiens) (UniProt P45985); conditions: Compound concentration 1000.0 nM
[39] = molecular target: Cyclin-dependent kinase-like 1 (Homo sapiens) (UniProt Q00532); conditions: Compound concentration 1000.0 nM
[40] = molecular target: LIM domain kinase 2 (Homo sapiens) (UniProt P53671); conditions: Compound concentration 1000.0 nM
Chain of LIM domain kinase 2 (Homo sapiens) (P53671 whole entry, looked up, the tested form may be a part): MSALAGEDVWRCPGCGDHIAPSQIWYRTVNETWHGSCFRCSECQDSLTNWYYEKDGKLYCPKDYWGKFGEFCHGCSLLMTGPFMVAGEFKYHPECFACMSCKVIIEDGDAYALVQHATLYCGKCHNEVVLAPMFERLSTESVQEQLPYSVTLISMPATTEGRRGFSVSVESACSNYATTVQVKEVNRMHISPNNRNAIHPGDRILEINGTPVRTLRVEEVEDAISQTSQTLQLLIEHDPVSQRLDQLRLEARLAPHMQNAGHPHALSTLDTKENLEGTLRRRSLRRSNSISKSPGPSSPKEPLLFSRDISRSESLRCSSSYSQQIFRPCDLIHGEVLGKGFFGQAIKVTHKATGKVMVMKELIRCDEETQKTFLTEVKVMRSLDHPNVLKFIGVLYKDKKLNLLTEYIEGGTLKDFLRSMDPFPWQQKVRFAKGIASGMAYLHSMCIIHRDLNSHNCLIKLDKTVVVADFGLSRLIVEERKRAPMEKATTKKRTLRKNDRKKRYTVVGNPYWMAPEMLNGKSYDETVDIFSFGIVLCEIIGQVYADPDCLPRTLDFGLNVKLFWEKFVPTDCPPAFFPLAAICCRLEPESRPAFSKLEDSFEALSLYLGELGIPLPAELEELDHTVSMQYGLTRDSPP

Chain of Calcium/calmodulin-dependent protein kinase type 1D (Homo sapiens) (Q8IU85 whole entry, looked up): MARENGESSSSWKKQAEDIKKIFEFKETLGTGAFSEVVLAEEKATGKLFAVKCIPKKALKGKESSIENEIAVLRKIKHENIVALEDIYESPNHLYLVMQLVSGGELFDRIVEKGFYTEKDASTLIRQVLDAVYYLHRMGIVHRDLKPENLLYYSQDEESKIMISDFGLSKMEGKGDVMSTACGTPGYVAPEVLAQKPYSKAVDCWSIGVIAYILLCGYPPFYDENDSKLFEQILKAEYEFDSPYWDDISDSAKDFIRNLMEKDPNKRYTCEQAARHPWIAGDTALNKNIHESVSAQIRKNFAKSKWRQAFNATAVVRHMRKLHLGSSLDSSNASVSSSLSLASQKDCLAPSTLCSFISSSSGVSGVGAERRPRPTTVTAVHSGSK
Chain of 5-hydroxytryptamine receptor 5A (Homo sapiens) (P47898 whole entry): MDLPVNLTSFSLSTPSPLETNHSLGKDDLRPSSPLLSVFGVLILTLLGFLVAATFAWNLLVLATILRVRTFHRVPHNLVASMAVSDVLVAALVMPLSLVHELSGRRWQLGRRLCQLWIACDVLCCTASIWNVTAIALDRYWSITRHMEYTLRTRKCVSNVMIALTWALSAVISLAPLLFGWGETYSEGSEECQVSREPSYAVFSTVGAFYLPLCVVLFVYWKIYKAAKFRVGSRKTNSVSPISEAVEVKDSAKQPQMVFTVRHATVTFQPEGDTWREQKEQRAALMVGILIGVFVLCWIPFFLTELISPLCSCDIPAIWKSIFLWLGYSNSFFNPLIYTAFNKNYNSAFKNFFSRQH
Chain of Ribosomal protein S6 kinase alpha-3 (Homo sapiens) (P51812 whole entry): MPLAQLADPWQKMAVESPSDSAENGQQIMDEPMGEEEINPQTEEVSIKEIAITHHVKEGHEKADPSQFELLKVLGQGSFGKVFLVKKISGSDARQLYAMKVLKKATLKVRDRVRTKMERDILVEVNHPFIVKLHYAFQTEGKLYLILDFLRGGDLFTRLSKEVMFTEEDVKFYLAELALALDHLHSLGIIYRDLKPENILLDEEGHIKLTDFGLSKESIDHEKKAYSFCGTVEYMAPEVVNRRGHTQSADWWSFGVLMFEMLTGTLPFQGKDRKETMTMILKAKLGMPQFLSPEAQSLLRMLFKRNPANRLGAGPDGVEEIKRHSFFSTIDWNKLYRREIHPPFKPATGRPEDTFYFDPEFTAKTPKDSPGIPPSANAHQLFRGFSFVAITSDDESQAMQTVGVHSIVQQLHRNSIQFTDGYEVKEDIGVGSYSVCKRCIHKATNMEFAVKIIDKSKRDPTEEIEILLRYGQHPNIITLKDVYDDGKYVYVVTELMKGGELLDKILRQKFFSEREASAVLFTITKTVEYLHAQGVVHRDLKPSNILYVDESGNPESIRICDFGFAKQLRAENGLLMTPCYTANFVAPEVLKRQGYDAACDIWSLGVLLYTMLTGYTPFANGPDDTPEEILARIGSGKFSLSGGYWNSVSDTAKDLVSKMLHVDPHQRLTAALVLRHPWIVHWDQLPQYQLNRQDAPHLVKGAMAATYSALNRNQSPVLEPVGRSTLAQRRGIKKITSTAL
Chain of Alpha-2B adrenergic receptor (Homo sapiens) (P18089 whole entry): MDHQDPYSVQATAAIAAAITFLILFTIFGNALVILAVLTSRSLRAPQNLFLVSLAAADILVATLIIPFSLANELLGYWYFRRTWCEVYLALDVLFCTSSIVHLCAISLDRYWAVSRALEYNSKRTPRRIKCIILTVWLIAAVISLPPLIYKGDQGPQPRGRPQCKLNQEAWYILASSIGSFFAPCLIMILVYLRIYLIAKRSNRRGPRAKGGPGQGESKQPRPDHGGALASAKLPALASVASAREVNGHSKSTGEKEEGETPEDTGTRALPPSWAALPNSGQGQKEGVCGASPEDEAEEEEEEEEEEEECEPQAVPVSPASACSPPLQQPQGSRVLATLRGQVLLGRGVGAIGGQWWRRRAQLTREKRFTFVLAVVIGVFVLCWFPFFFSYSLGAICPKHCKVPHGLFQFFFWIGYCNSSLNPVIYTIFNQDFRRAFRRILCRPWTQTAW
Chain of Aurora kinase C (Homo sapiens) (Q9UQB9 whole entry): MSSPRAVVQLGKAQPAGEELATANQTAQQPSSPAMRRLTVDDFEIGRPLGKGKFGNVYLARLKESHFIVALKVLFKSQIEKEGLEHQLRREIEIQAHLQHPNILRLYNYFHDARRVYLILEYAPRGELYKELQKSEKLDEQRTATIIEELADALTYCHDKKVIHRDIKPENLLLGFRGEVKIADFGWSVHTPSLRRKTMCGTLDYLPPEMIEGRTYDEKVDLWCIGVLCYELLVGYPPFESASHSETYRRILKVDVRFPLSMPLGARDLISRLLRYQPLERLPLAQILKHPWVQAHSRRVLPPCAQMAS
Chain of Tyrosine-protein kinase Tec (Homo sapiens) (P42680 whole entry): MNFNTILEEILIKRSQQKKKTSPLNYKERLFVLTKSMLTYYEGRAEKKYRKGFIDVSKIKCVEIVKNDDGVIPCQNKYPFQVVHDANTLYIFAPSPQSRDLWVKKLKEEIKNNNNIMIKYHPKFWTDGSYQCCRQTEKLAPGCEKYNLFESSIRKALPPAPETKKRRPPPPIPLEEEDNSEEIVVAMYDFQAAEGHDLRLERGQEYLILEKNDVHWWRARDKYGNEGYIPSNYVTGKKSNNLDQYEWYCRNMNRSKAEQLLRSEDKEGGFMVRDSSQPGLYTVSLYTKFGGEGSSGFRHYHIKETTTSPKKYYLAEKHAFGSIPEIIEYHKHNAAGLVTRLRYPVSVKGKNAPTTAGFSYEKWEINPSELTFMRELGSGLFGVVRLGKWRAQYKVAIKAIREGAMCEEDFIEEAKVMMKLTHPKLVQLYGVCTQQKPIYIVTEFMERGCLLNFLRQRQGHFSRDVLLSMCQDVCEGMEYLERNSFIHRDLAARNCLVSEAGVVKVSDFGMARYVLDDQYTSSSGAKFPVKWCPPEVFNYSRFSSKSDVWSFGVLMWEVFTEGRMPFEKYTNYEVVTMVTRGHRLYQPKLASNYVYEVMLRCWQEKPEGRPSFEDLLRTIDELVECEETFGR
Chain of 3-phosphoinositide-dependent protein kinase 1 (Homo sapiens) (O15530 whole entry): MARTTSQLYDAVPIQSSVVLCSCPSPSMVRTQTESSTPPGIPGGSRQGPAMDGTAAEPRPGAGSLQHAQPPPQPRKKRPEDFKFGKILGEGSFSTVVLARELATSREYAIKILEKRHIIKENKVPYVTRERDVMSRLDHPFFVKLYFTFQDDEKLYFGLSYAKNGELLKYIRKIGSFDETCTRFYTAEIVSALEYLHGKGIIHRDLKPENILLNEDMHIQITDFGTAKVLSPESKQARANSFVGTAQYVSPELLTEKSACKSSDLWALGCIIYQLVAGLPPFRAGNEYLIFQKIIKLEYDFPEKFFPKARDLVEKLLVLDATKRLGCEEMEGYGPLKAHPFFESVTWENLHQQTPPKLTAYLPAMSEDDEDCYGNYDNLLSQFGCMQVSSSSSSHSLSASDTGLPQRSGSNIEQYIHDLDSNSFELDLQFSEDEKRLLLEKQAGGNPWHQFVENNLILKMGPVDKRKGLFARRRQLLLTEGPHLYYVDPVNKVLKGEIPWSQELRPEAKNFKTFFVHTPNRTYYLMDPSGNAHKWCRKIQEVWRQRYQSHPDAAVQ
Chain of Mitogen-activated protein kinase kinase kinase 7 (Homo sapiens) (O43318 whole entry): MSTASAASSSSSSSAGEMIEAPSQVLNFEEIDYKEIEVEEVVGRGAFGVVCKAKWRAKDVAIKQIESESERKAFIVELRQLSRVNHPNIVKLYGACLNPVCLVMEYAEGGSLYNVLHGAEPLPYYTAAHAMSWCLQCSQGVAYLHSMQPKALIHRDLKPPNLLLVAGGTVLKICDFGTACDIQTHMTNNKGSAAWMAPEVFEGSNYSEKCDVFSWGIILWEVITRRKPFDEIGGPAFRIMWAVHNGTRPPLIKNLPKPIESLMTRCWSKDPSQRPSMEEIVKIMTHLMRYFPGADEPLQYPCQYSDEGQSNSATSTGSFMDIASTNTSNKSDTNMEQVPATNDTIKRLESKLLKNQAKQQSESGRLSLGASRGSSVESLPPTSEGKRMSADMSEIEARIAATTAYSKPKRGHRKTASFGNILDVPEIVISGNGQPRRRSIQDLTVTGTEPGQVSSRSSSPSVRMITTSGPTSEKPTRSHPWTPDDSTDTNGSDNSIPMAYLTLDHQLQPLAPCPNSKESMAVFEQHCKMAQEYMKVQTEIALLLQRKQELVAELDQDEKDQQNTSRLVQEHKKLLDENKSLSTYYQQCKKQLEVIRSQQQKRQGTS
Chain of Cyclin-dependent kinase 4 (Homo sapiens) (P11802 whole entry): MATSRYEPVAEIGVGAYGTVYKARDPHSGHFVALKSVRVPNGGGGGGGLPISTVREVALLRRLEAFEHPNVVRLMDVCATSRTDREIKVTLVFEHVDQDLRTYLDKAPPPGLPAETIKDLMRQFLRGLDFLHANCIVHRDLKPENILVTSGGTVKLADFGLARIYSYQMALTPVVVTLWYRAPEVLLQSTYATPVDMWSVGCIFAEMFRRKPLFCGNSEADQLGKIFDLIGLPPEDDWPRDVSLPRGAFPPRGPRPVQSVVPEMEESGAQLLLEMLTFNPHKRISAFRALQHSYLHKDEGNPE

| Structure (SMILES) | residual activity [1] [%] | residual activity [2] [%] | residual activity [3] [%] | residual activity [4] [%] | residual activity [5] [%] | residual activity [6] [%] | residual activity [7] [%] | inhibition [8] [%] | residual activity [9] [%] | residual activity [10] [%] | residual activity [11] [%] | residual activity [12] [%] | residual activity [13] [%] | inhibition [14] [%] | residual activity [15] [%] | residual activity [16] [%] | residual activity [17] [%] | residual activity [18] [%] | residual activity [19] [%] | residual activity [20] [%] | other results |
| --- | --- | --- | --- | --- | --- | --- | --- | --- | --- | --- | --- | --- | --- | --- | --- | --- | --- | --- | --- | --- | --- |
| NS(=O)(=O)c1cc(NC(=O)Cc2ccccc2)ccc1Oc1cccc(Cl)c1 [BAY-1797] | 91 | 100 | 72 | 88 | 75 | 100 | 100 | 28.4 | 74 | 91 | 84 | 72 | 82 | 46.3 | 72 | 68 | 100 | 94 | 73 | 81 | residual activity [21]: 84%; residual activity [22]: 100%; residual activity [23]: 75%; residual activity [24]: 99%; residual activity [25]: 100%; residual activity [26]: 52%; residual activity [27]: 96%; residual activity [28]: 95%; inhibition [29]: 56.6%; residual activity [30]: 89%; residual activity [31]: 71%; residual activity [32]: 93%; residual activity [33]: 96%; inhibition [34]: 1.47%; inhibition [35]: 19.9%; inhibition [36]: 19.3%; residual activity [37]: 99%; residual activity [38]: 82%; residual activity [39]: 98%; residual activity [40]: 88% |
| NS(=O)(=O)c1cc(NC(=O)C2(c3ccccc3Cl)CC2)ccc1Oc1cccc(Cl)c1 [BAY-207] | 89 | 76 | 89 | 100 | 98 | 63 | 97 | 27 | 98 | 80 | 95 | 100 | 87 | -5.77 | 92 | 65 | 100 | 87 | 100 | 93 | residual activity [21]: 100%; residual activity [22]: 90%; residual activity [23]: 90%; residual activity [24]: 74%; residual activity [25]: 82%; residual activity [26]: 100%; residual activity [27]: 99%; residual activity [28]: 85%; inhibition [29]: 43.4%; residual activity [30]: 100%; residual activity [31]: 70%; residual activity [32]: 89%; residual activity [33]: 81%; inhibition [34]: 5.57%; inhibition [35]: 3.19%; inhibition [36]: 40.2%; residual activity [37]: 68%; residual activity [38]: 100%; residual activity [39]: 99%; residual activity [40]: 82% |
